Test results published in patent publication US5140040A, “1-aminomethyl-1,2,3,4-tetrahydronaphthalenes” (Abbott Laboratories, priority 1991, dated 1992).
Where a name gives a salt, the structure may show the parent alone.

Assays:
norepinephrine uptake = assay: Biogenic amine uptake inhibition, rat brain synaptosomes, tritiated norepinephrine; type: biochemical, Sprague-Dawley derived rats; conditions: tritiated amine 0.1 μM, 37° C., 4 minutes, read-out: Biogenic Amine Uptake Inhibition IC50 Norephinephrine
Source text: (§1) Sprague-Dawley derived rats of either sex, weighing about 180-250 g, were killed by decapitation. The brains were immediately removed, placed on a glass plate chilled over crushed ice and dissected according to a modification of the method of Glowinski and Iversen (J. Neurochem. 13, 655-669, 1966). First, the rhombencephalon was separated by transverse section and discarded. The remaining tissue was bisected by a midline sagittal cut. The hypothalamus was removed using the anterior and posterior reference points, respectively. The hippocampus was peeled away and discarded and the striata were exposed and removed. Frontal cortical tissue was dissected from remaining brain structures. The hypothalamus and striatum each weighed about 100 mg , the striata 50-75 mg, and the cortex weighed up to 800 mg. The tissues were placed in a cold Potter-Elvehjem glass homogenizer with 5 (cortex) or 10 (hypothalamus) and 20 (striatum) volumes of ice-cold 0.32M sucrose, pH 7.0 and homogenized by hand. The homogenate was centrifuged at 2500 rpm in a GLC centrifuge for 10 minutes in a refrigerated room. The supernatant fraction containing the synaptosomes was decanted, mixed thoroughly, and kept on crushed ice for use in the uptake studies.
(§2) Uptake studies were conducted according to the method of Synder and Coyle (J. PharmacoI. Exp. Ther. 165, 78-86, 1969) with minor modifications. Usually a 0.1 ml aliquot of the synaptosomal preparation was incubated in a mixture of 0.75 ml of modified Krebs-Ringer buffer, 0.05 ml of the drug being evaluated for uptake inhibition, and 0.1 ml of a 1 μM tritiated amine (norepinephrine, serotonin or dopamine) solution (final concentration 0.1 μM) for a total volume of 1 ml. The modified Krebs-Ringer bicarbonate buffer used in these studies contained 118 mM NaCl, 4 mM KCl, 1.3 mM CaCl2, 1.12 mM KH2 PO4, 1.2 mM MgSO4 and 24 mM NaHCO3, with the addition of 5 mM glucose, 0.15 mM disodium EDTA, 12.5 μM pargyline and 1 mM ascorbic acid. Uptake was initiated by the addition of the tritiated amine, and the mixture was incubated at 37° C. in a Dubnoff Metabolic Shaking Incubator for 4 minutes. Control incubations without the test drug were conducted at 37° C. to determine total uptake and non-specific binding at 0° C. to correct for the diffusion of the tritiated amine into the synaptosomes and/or binding. Filtration was used to terminate uptake and collect the synaptosomes. In the filtration technique the incubation mixture was diluted with 4 ml of ice-cold 0.9% NaCl and filtered through GF/B glass microfiber filters (Whatman) under gentle vacuum. The filters were subsequently washed four times with 5 ml of ice-cold 0.9% NaCl and transferred to glass scintillation vials. Soluene® ([…]) and IONIC FLUOR (Packard) scintillation fluid (3.5 ml) were added and the vials were placed in a mechanical shaker for 1 hour. All samples were cold and dark adapted and counted in a TriCarb® (Packarad) Model 460 Liquid Scintillation Spectrometer. Corrections were automatically made for quenching by the external standard method and for luminescence. All results (see Table 2) are based on total radioactivity.

serotonin uptake = assay: Biogenic amine uptake inhibition, rat brain synaptosomes, tritiated serotonin; type: biochemical, Sprague-Dawley derived rats; conditions: tritiated amine 0.1 μM, 37° C., 4 minutes
Source text: as §1, §2

dopamine uptake = assay: Biogenic amine uptake inhibition, rat brain synaptosomes, tritiated dopamine; type: biochemical, Sprague-Dawley derived rats; conditions: tritiated amine 0.1 μM, 37° C., 4 minutes
Source text: as §1, §2

alpha-2-receptor = assay: Radioligand binding, alpha-2 adrenoceptor, rat cerebral cortices, [^3 H]-rauwolscine; conditions: for Ki: rat cerebral cortices, [^3 H]-rauwolscine; for alpha-2 - Selectivity Ki alpha-1/Ki alpha 2: ratio of Ki alpha-1 to Ki alpha-2
Description: The compounds were assessed for alpha-adrenergic receptor subtype selectivity by use of radioligand binding techniques as described previously (DeBernardis et.al. J. Med. Chem. 28, 1398 (1985)).

intraocular pressure = assay: Effect of topically administered compounds on intraocular pressure of rabbits; type: in vivo, New Zealand rabbits; conditions: 0.3% soln., 0.1 ml topical
Description: The intraocular pressure lowering effects of the compounds were evaluated in unanesthetized male albino, New Zealand rabbits weighing 2.0 to 2.5 kg. The rabbits were placed in Plas Labs restraining devices for the duration of the experiment. Intraocular pressure (IOP) was measured with a Bausch and Lomb Applamatic Tonometer and recorded as the average of three individual readings at each time point in the experiment. Baseline IOP values were established at three time points separated by 30 minutes. Each compound or vehicle was applied topically to the cornea in a volume of 0.1 ml to one eye in each six rabbits. The contralateral eye was untreated. IOP was recorded at 5, 15, 30, 60 and 90 minutes after dosing.

Molecule	IC50 (norepinephrine uptake)	IC50 (serotonin uptake)	IC50 (dopamine uptake)	Ki (alpha-2-receptor)	alpha-2 - Selectivity Ki alpha-1/Ki alpha 2 (alpha-2-receptor)	% Change in Intraocular Pressure After Treatment Compared to Untreated Eye (intraocular pressure; 5 minutes)	% Change in Intraocular Pressure After Treatment Compared to Untreated Eye (intraocular pressure; 15 minutes)	% Change in Intraocular Pressure After Treatment Compared to Untreated Eye (intraocular pressure; 30 minutes)	% Change in Intraocular Pressure After Treatment Compared to Untreated Eye (intraocular pressure; 60 minutes)	% Change in Intraocular Pressure After Treatment Compared to Untreated Eye (intraocular pressure; 90 minutes)
CCN(CCc1cccc(F)c1)CC1CCCc2c1ccc1c2OCO1 (centres unmarked) [Example 165, 1-((N-Ethylamino)methyl-N-(2 m-fluorophenethyl))-5,6-methylenedioxy tetralin hydrochloride]	0.398 µM	1.24 µM	6.67 µM	0.0035 µM	132	–	–	–	–	–
CN(CCc1cccc(F)c1)CC1CCCc2c1ccc1c2OCO1 (centres unmarked) [Example 166, 1-((N-Methylamino)methyl-N-(2-m-fluorophenethyl))-5,6-methylenedioxy tetralin methanesulfonate]	1.52 µM	0.4 µM	8.77 µM	0.0045 µM	134	–	–	–	–	–
CCN(CCc1ccsc1)CC1CCCc2cc(OC)ccc21 (centres unmarked) [Example 44, 1-N-Ethylamino)methyl-N-(2-(3-thienyl)ethyl))-6-methoxy tetralin hydrochloride]	0.357 µM	3.29 µM	8.64 µM	0.0056 µM	105	–	–	–	–	–
CCN(CCc1cccs1)CC1CCCc2c(OC)cccc21 (centres unmarked) [Example 73, 1-((N-Ethylamino)methyl-N-(2-(2-thienyl)ethyl))-5-methoxy tetralin hydrochloride]	0.336 µM	0.84 µM	8.43 µM	–	–	–	–	–	–	–
c1ccc(C2CCN(CC3CCCc4c3ccc3c4OCO3)C2)cc1 (centres unmarked) [Example 143a, 5,6-Methylenedioxy-1-(3-phenylpyrrolidino-1-methyl) tetralin methanesulfonate]	1.1 µM	4.03 µM	8.72 µM	0.0012 µM	43	–	–	–	–	–
CCN(CCc1cccc(F)c1)CC1CCCc2c(OC)cccc21 (centres unmarked) [Example 72, 1-((N-Ethylamino)methyl-N-(2-(m-fluorophenyl)ethyl))-5-methoxy tetralin hydrochloride]	0.137 µM	0.466 µM	6.83 µM	–	–	–	–	–	–	–
COc1ccc2c(c1)CCCC2CN(C)CCc1cccc(F)c1 (centres unmarked) [Example 6b, 1-((N-methylamino)methyl-N-(2-(m-fluorophenyl)ethyl))-6-methoxy tetralin hydrochloride]	0.574 µM	1.95 µM	10.1 µM	0.005 µM	236	–	–	–	–	–
CN(CCc1ccccc1)CC1CCCc2cc(O)ccc21 (centres unmarked) [Example 11, 1-((N-Methylamino)methyl-N-(2-phenylethyl))-6-hydroxy tetralin hydrobromide]	1.74 µM	7.23 µM	10.1 µM	–	–	–	–	–	–	–
CN(CCc1cccs1)CC1CCCc2c1ccc1c2OCCO1 (centres unmarked) [Example 30, 1-((N-Methylamino)methyl-N-(2-(2-thienyl)ethyl))-5,6-ethylenedioxy tetralin hydrochloride]	0.624 µM	1.34 µM	8.08 µM	0.004 µM	118	–	–	–	–	–
8-Fluoro-5,6-methylenedioxy-1-(3-phenylpyrrolidino1-methyl) tetralin hydrochloride [Example 160]	0.991 µM	1.84 µM	2.93 µM	–	–	–	–	–	–	–
COc1cccc2c1CCCC2CN(C)CCc1cccs1 (centres unmarked) [Example 19, 1-((N-Methylamino)methyl-N-(2-(2-thienyl)ethyl))-5-methoxy tetralin methanesulfonate]	0.498 µM	0.411 µM	6.09 µM	–	–	–	–	–	–	–
COc1cccc2c1CCCC2CN(C)CCc1cccc(F)c1 (centres unmarked) [Example 20c, 1-((N-methylamino)methyl-N-(2-(m-fluorophenyl)ethyl))-5-methoxytetralinmethanesulfonate]	1.58 µM	0.161 µM	9.17 µM	–	–	–	–	–	–	–
Fc1ccccc1C1CCN(CC2CCCc3c2ccc2c3OCO2)C1 (centres unmarked) [Example 176a, 5,6-Methylenedioxy-1-(3-(o-fluorophenyl)pyrrolidino-1-methyl) tetralin methanesulfonate]	1.56 µM	2.83 µM	7.31 µM	0.0006 µM	132	–	–	–	–	–
CN(C)CCCN1c2ccccc2CCc2ccccc21 [Imipramine, reference compound]	0.346 µM	0.778 µM	125 µM	–	–	–	–	–	–	–
CN(CCc1cccc(F)c1)CC1CCCc2cc(O)ccc21 (centres unmarked) [Example 10, 1-((N-Methylamino)methyl-N-(2-(m-fluorophenyl)ethyl))6-hydroxy tetralin hydrochloride]	–	–	–	–	–	-45%	-31%	-25%	-36%	-23%
COc1ccc2c(c1)CCCC2CN(C)CCc1cccs1 (centres unmarked) [Example 5, 1-((N-Methylamino)methyl-N-(2-(2-thienyl)ethyl))-6-methoxy tetralin methanesulfonate]	1.04 µM	5.92 µM	6.53 µM	0.0008 µM	725	–	–	–	–	–
CCN(CCc1cccs1)CC1CCCc2cc(OC)ccc21 (centres unmarked) [Example 41, 1-((N-Ethylamino)methyl-N-(2-(2-thienyl)ethyl))-6-methoxy tetralin hydrochloride]	0.2 µM	2.28 µM	6.03 µM	0.0029 µM	326	–	–	–	–	–
Cc1cc(O)c(O)c2c1C(CN(C)CCc1cccc(F)c1)CCC2 (centres unmarked) [Example 34, 1-(N-Methylamino)methyl-N-(2-(m-fluorophenyl)ethyl))-5,6-dihydroxy-8-methyltetralin hydrobromide]	0.365 µM	2.2 µM	9.4 µM	0.0026 µM	127	–	–	–	–	–
COc1ccc2c(c1)CCCC2CN(C)CCc1cccn1C (centres unmarked) [Example 12, 1-((N-Methylamino)methyl-N-(2-(N-methyl2-pyrrolyl)-ethyl))-6-methoxy tetralin fumarate]	–	–	–	0.005 µM	242	–	–	–	–	–
Fc1ccc2c(c1)CCCC2CN1CCC(c2ccccc2)C1 (centres unmarked) [Example 148, 6-Fluoro-1-(3-phenylpyrrolidino-1-methyl) tetralin methanesulfonate]	–	–	–	0.0065 µM	19	–	–	–	–	–
